Reference: publication PMC5218480 (PLoS ONE, 2017)

Tested on: MV-4-11 cells
Assay: Gene expression microarray analysis (Affymetrix PrimeView) and GSEA
Type: cell-based, human
Set-up: RFU PODN (11730768_x_at) / Fold change /veh PODN (11730768_x_at) / RFU LINC00158 (11744669_a_at) / Fold change /veh LINC00158 (11744669_a_at) / RFU DUSP10 (11751237_a_at) / Fold change /veh DUSP10 (11751237_a_at) / RFU ID3 (11757404_x_at) / Fold change /veh ID3 (11757404_x_at) / RFU PLEKHG5 (11737974_s_at) / Fold change /veh PLEKHG5 (11737974_s_at) / RFU LRRC4B (11730491_at) / Fold change /veh LRRC4B (11730491_at) / RFU GIMAP4 (11747438_a_at) / Fold change /veh GIMAP4 (11747438_a_at) / RFU KRT8 (11758183_x_at) / Fold change /veh KRT8 (11758183_x_at) / RFU CNN1 (11734310_a_at) / Fold change /veh CNN1 (11734310_a_at) / RFU VPS37D (11726825_at) / Fold change /veh VPS37D (11726825_at) / RFU C10orf10 (11716522_x_at) / Fold change /veh C10orf10 (11716522_x_at) / RFU KIR2DL2 /// KIR2DL4 /// KIR2DL5A /// KIR2DL5B /// KIR2DS1 /// KIR2DS2 /// KIR2DS3 /// KIR2DS4 /// KIR3DL3 /// KIR3DL3 /// KIR3DS1 (11738374_at) / Fold change /veh KIR2DL2 /// KIR2DL4 /// KIR2DL5A /// KIR2DL5B /// KIR2DS1 /// KIR2DS2 /// KIR2DS3 /// KIR2DS4 /// KIR3DL3 /// KIR3DL3 /// KIR3DS1 (11738374_at) / RFU C1QL1 (11718748_at) / Fold change /veh C1QL1 (11718748_at) / RFU TMPRSS4 (11747572_a_at) / Fold change /veh TMPRSS4 (11747572_a_at) / RFU HAMP (11756126_x_at) / Fold change /veh HAMP (11756126_x_at) / RFU RNFT2 (11725882_a_at) / Fold change /veh RNFT2 (11725882_a_at) / RFU NR4A2 (11747474_a_at) / Fold change /veh NR4A2 (11747474_a_at) / RFU ABCC12 (11746883_a_at) / Fold change /veh ABCC12 (11746883_a_at) / RFU TMEM136 (11760407_x_at) / Fold change /veh TMEM136 (11760407_x_at) / RFU CLDN22 /// WWC2 (11732394_at) / Fold change /veh CLDN22 /// WWC2 (11732394_at) / RFU HLA-DPB1 (11760878_x_at) / Fold change /veh HLA-DPB1 (11760878_x_at) / RFU SPINT1 (11716480_a_at) / Fold change /veh SPINT1 (11716480_a_at) / RFU GAP43 (11754022_s_at) / Fold change /veh GAP43 (11754022_s_at) / RFU A4GNT (11735810_at) / Fold change /veh A4GNT (11735810_at) / RFU PRB3 (11715151_x_at) / Fold change /veh PRB3 (11715151_x_at) / RFU TUBB4B (11761932_at) / Fold change /veh TUBB4B (11761932_at) / RFU CAPN14 (11732068_a_at) / Fold change /veh CAPN14 (11732068_a_at) / RFU TMCC2 (11721928_a_at) / Fold change /veh TMCC2 (11721928_a_at) / RFU IRGQ (11745062_a_at) / Fold change /veh IRGQ (11745062_a_at) / RFU FAM174B (11720279_a_at) / Fold change /veh FAM174B (11720279_a_at) / RFU TMPRSS4 (11748680_a_at) / Fold change /veh TMPRSS4 (11748680_a_at) / RFU FAM212B (11763350_a_at) / Fold change /veh FAM212B (11763350_a_at) / RFU PLEKHG5 (11743358_a_at) / Fold change /veh PLEKHG5 (11743358_a_at) / RFU ZSCAN30 (11745921_a_at) / Fold change /veh ZSCAN30 (11745921_a_at) / RFU CMKLR1 (11741424_a_at) / Fold change /veh CMKLR1 (11741424_a_at) / RFU LOC101060620 /// MAPK8IP1 (11723275_at) / Fold change /veh LOC101060620 /// MAPK8IP1 (11723275_at) / RFU SPTSSB (11747773_x_at) / Fold change /veh SPTSSB (11747773_x_at) / RFU PRSS12 (11739890_at) / Fold change /veh PRSS12 (11739890_at) / RFU BIN1 (11741810_x_at) / Fold change /veh BIN1 (11741810_x_at) / RFU WNT11 (11732464_a_at) / Fold change /veh WNT11 (11732464_a_at) / RFU C10orf10 (11716521_a_at) / Fold change /veh C10orf10 (11716521_a_at) / RFU C5orf56 (11738089_at) / Fold change /veh C5orf56 (11738089_at) / RFU CYB561 (11721691_x_at) / Fold change /veh CYB561 (11721691_x_at) / RFU ANKRD19P (11752326_a_at) / Fold change /veh ANKRD19P (11752326_a_at) / RFU OR2T12 /// OR2T33 /// OR2T8 (11738714_s_at) / Fold change /veh OR2T12 /// OR2T33 /// OR2T8 (11738714_s_at) / RFU VCAN (11748164_a_at) / Fold change /veh VCAN (11748164_a_at) / RFU JSRP1 (11732532_at) / Fold change /veh JSRP1 (11732532_at) / RFU KRTAP10-11 (11738290_x_at) / Fold change /veh KRTAP10-11 (11738290_x_at) / RFU MYO3A (11730013_a_at) / Fold change /veh MYO3A (11730013_a_at) / RFU EBF3 (11725865_a_at) / Fold change /veh EBF3 (11725865_a_at) / RFU CAMK2N1 (11719241_x_at) / Fold change /veh CAMK2N1 (11719241_x_at) / RFU C5orf56 (11738088_a_at) / Fold change /veh C5orf56 (11738088_a_at) / RFU OLFML3 (11715873_a_at) / Fold change /veh OLFML3 (11715873_a_at) / RFU LOC100653217 /// NTM (11731650_a_at) / Fold change /veh LOC100653217 /// NTM (11731650_a_at) / RFU MAPK11 (11762145_a_at) / Fold change /veh MAPK11 (11762145_a_at) / RFU FIZ1 (11724087_x_at) / Fold change /veh FIZ1 (11724087_x_at) / RFU OASL (11726364_x_at) / Fold change /veh OASL (11726364_x_at) / RFU SOX15 (11748057_x_at) / Fold change /veh SOX15 (11748057_x_at) / RFU CD79A (11719716_a_at) / Fold change /veh CD79A (11719716_a_at) / RFU HIST1H1D (11736915_at) / Fold change /veh HIST1H1D (11736915_at) / RFU CASKIN2 (11723855_a_at) / Fold change /veh CASKIN2 (11723855_a_at) / RFU LOC730098 (11760151_x_at) / Fold change /veh LOC730098 (11760151_x_at) / RFU OR4N2 (11742367_at) / Fold change /veh OR4N2 (11742367_at) / RFU PRRT2 (11749266_a_at) / Fold change /veh PRRT2 (11749266_a_at) / RFU SNX32 (11753110_a_at) / Fold change /veh SNX32 (11753110_a_at) / RFU CDHR5 (11726645_a_at) / Fold change /veh CDHR5 (11726645_a_at) / RFU RCAN1 (11760418_a_at) / Fold change /veh RCAN1 (11760418_a_at) / RFU FAM167A (11723789_a_at) / Fold change /veh FAM167A (11723789_a_at) / RFU FAM26E (11764081_at) / Fold change /veh FAM26E (11764081_at) / RFU ISYNA1 (11749810_s_at) / Fold change /veh ISYNA1 (11749810_s_at) / RFU ACY1 (11761880_at) / Fold change /veh ACY1 (11761880_at) / RFU 11764098_at / Fold change /veh 11764098_at / RFU SAMD14 (11745864_x_at) / Fold change /veh SAMD14 (11745864_x_at) / RFU NPB (11741838_a_at) / Fold change /veh NPB (11741838_a_at) / RFU TMPRSS6 (11731388_a_at) / Fold change /veh TMPRSS6 (11731388_a_at) / RFU KRTAP10-2 (11738614_at) / Fold change /veh KRTAP10-2 (11738614_at) / RFU ARHGAP8 /// PRR5-ARHGAP8 (11727945_x_at) / Fold change /veh ARHGAP8 /// PRR5-ARHGAP8 (11727945_x_at) / RFU KRTAP5-7 /// NADSYN1 (11734609_at) / Fold change /veh KRTAP5-7 /// NADSYN1 (11734609_at) / RFU RASL12 (11751679_a_at) / Fold change /veh RASL12 (11751679_a_at) / RFU CDKN2B (11736163_a_at) / Fold change /veh CDKN2B (11736163_a_at) / RFU PRF1 (11729649_at) / Fold change /veh PRF1 (11729649_at) / RFU, ZNF638 /// ZNF638-IT1 / Fold change vs veh, ZNF638 /// ZNF638-IT1 / RFU, PANK3 / Fold change vs veh, PANK3 / RFU, SH3YL1 / Fold change vs veh, SH3YL1 / RFU, ZEB2 / Fold change vs veh, ZEB2 / RFU, NRIP1 / Fold change vs veh, NRIP1 / RFU, PTTG1IP / Fold change vs veh, PTTG1IP / RFU, CAPN2 / Fold change vs veh, CAPN2 / RFU, MED14 / Fold change vs veh, MED14 / RFU, SNORA58 / Fold change vs veh, SNORA58 / RFU, C1orf63 / Fold change vs veh, C1orf63 / RFU, LRRFIP1 / Fold change vs veh, LRRFIP1 / RFU, NDUFAF7 / Fold change vs veh, NDUFAF7 / RFU, SLC12A2 / Fold change vs veh, SLC12A2 / RFU, IBTK / Fold change vs veh, IBTK / RFU, ESF1 / Fold change vs veh, ESF1 / Fold change vs veh, TMEM50B / RFU, TAOK1 / Fold change vs veh, TAOK1 / RFU, ACBD3 / Fold change vs veh, ACBD3 / RFU, TMA16 / Fold change vs veh, TMA16 / RFU, RWDD3 / Fold change vs veh, RWDD3 / RFU, BCAT1 / Fold change vs veh, BCAT1 / RFU, EDEM3 / Fold change vs veh, EDEM3 / RFU, TMEM33 / Fold change vs veh, TMEM33 / RFU, WDR75 / Fold change vs veh, WDR75 / RFU, AHCTF1 / Fold change vs veh, AHCTF1 / RFU, TFRC / Fold change vs veh, TFRC / RFU, ZDHHC17 / Fold change vs veh, ZDHHC17 / RFU, NOM1 / Fold change vs veh, NOM1 / RFU, ARL8B / Fold change vs veh, ARL8B / RFU, ZBTB11 / Fold change vs veh, ZBTB11 / RFU, TAMM41 / Fold change vs veh, TAMM41 / RFU, KIAA1704 /// LOC100996395 / Fold change vs veh, KIAA1704 /// LOC100996395 / RFU, ING1 / Fold change vs veh, ING1 / RFU, TRMT61B / Fold change vs veh, TRMT61B / RFU, FUBP3 / Fold change vs veh, FUBP3 / RFU, TP53 / Fold change vs veh, TP53 / RFU, TNKS2 / Fold change vs veh, TNKS2 / RFU, ZFP14 / Fold change vs veh, ZFP14 / RFU, ACTR2 / Fold change vs veh, ACTR2 / RFU, PPP3R1 / Fold change vs veh, PPP3R1 / RFU, PIK3R1 / Fold change vs veh, PIK3R1 / RFU, HNRNPA1 / Fold change vs veh, HNRNPA1 / RFU, RNF170 / Fold change vs veh, RNF170 / RFU, ZNF28 / Fold change vs veh, ZNF28 / RFU, RNGTT / Fold change vs veh, RNGTT / RFU, OGT / Fold change vs veh, OGT / RFU, BRD1 / Fold change vs veh, BRD1 / RFU, MARS / Fold change vs veh, MARS / RFU, ZNF655 / Fold change vs veh, ZNF655 / RFU, FAHD1 / Fold change vs veh, FAHD1 / RFU, BDP1 / Fold change vs veh, BDP1 / RFU, LRRCC1 / Fold change vs veh, LRRCC1 / RFU, ARID1A / Fold change vs veh, ARID1A / RFU, ZNF146 / Fold change vs veh, ZNF146 / RFU, ZNF330 / Fold change vs veh, ZNF330 / RFU, GPN3 / Fold change vs veh, GPN3 / RFU, C9orf123 / Fold change vs veh, C9orf123 / RFU, N4BP2L2 / Fold change vs veh, N4BP2L2 / RFU, ARFIP1 / Fold change vs veh, ARFIP1 / RFU, FAM179B / Fold change vs veh, FAM179B / RFU, BCL10 / Fold change vs veh, BCL10 / RFU, UHRF1BP1L / Fold change vs veh, UHRF1BP1L / RFU, BET1 / Fold change vs veh, BET1 / RFU, CNOT2 / Fold change vs veh, CNOT2 / RFU, ZNF268 / Fold change vs veh, ZNF268 / Fold change vs veh, ZNF507 / RFU, DGCR2 / Fold change vs veh, DGCR2 / RFU, WDSUB1 / Fold change vs veh, WDSUB1 / Fold change vs veh, HSP90B1 /// MIR3652 / RFU, ADSS / Fold change vs veh, ADSS / RFU, GK / Fold change vs veh, GK / RFU, ZNF148 / Fold change vs veh, ZNF148 / RFU, TAF9 / Fold change vs veh, TAF9 / RFU, SLC1A5 / Fold change vs veh, SLC1A5 / RFU, SLMO2 / Fold change vs veh, SLMO2 / RFU, ABCC4 / Fold change vs veh, ABCC4 / RFU, LOC101060439 /// RAP1B / Fold change vs veh, LOC101060439 /// RAP1B / RFU, RFX7 / Fold change vs veh, RFX7 / RFU, GTPBP10 / Fold change vs veh, GTPBP10 / RFU, CNEP1R1 / Fold change vs veh, CNEP1R1 / RFU, BIVM-ERCC5 /// ERCC5 / Fold change vs veh, BIVM-ERCC5 /// ERCC5 / RFU, ILF3 / Fold change vs veh, ILF3 / RFU 11762660_at / Fold change /veh 11762660_at / RFU VCAN (11757783_s_at) / Fold change /veh VCAN (11757783_s_at) / RFU DDX43 (11728927_at) / Fold change /veh DDX43 (11728927_at) / RFU KRT8 (11758188_x_at) / Fold change /veh KRT8 (11758188_x_at) / RFU NKD1 (11759106_at) / Fold change /veh NKD1 (11759106_at) / RFU SRD5A1 (11742802_a_at) / Fold change /veh SRD5A1 (11742802_a_at) / RFU TPSAB1 /// TPSB2 (11721975_s_at) / Fold change /veh TPSAB1 /// TPSB2 (11721975_s_at) / RFU GSTM3 (11746129_a_at) / Fold change /veh GSTM3 (11746129_a_at) / RFU IL23R (11737362_x_at) / Fold change /veh IL23R (11737362_x_at) / RFU TMEM51 (11727254_a_at) / Fold change /veh TMEM51 (11727254_a_at) / RFU PIWIL2 (11732686_x_at) / Fold change /veh PIWIL2 (11732686_x_at) / RFU ORM1 (11744905_x_at) / Fold change /veh ORM1 (11744905_x_at) / RFU CCDC152 (11743942_at) / Fold change /veh CCDC152 (11743942_at) / RFU ECM1 (11717891_a_at) / Fold change /veh ECM1 (11717891_a_at) / RFU IL23R (11748794_a_at) / Fold change /veh IL23R (11748794_a_at) / RFU TNFAIP8L3 (11732012_x_at) / Fold change /veh TNFAIP8L3 (11732012_x_at) / RFU MBOAT4 (11741988_at) / Fold change /veh MBOAT4 (11741988_at) / RFU 11764193_at / Fold change /veh 11764193_at / RFU TMEM53 (11763286_at) / Fold change /veh TMEM53 (11763286_at) / RFU MAGEB2 (11727129_at) / Fold change /veh MAGEB2 (11727129_at) / RFU TMEM200A (11744735_a_at) / Fold change /veh TMEM200A (11744735_a_at) / RFU CCDC152 (11751479_a_at) / Fold change /veh CCDC152 (11751479_a_at) / RFU FAM211A (11726209_a_at) / Fold change /veh FAM211A (11726209_a_at) / RFU RGS16 (11746705_a_at) / Fold change /veh RGS16 (11746705_a_at) / RFU VCAN (11755009_s_at) / Fold change /veh VCAN (11755009_s_at) / RFU RHOB (11743442_s_at) / Fold change /veh RHOB (11743442_s_at) / RFU RGS16 (11720943_a_at) / Fold change /veh RGS16 (11720943_a_at) / RFU RGS16 (11720944_at) / Fold change /veh RGS16 (11720944_at) / RFU, VPS4B / Fold change vs veh, VPS4B / RFU, CREB1 / Fold change vs veh, CREB1 / RFU, DNAJC13 / Fold change vs veh, DNAJC13 / RFU, GNAQ / Fold change vs veh, GNAQ / RFU, CDK5R1 / Fold change vs veh, CDK5R1 / RFU, ZRANB3 / Fold change vs veh, ZRANB3 / RFU, CUL4A / Fold change vs veh, CUL4A / RFU, CCNY / Fold change vs veh, CCNY / RFU, UFL1 / Fold change vs veh, UFL1 / RFU, COG3 / Fold change vs veh, COG3 / RFU, DIAPH2 / Fold change vs veh, DIAPH2 / RFU, SKA2 / Fold change vs veh, SKA2 / RFU, AFF3 / Fold change vs veh, AFF3 / RFU, LMF1 / Fold change vs veh, LMF1 / RFU, IPO11 / Fold change vs veh, IPO11 / RFU, DFFB / Fold change vs veh, DFFB / RFU, FOXP1 / Fold change vs veh, FOXP1 / RFU, CARD8 / Fold change vs veh, CARD8 / RFU, STRN3 / Fold change vs veh, STRN3 / RFU, ADK / Fold change vs veh, ADK / RFU, RASSF2 / Fold change vs veh, RASSF2 / RFU, WIPF1 / Fold change vs veh, WIPF1 / RFU, LARP1B / Fold change vs veh, LARP1B / RFU, RASA1 / Fold change vs veh, RASA1 / RFU, RB1 / Fold change vs veh, RB1 / RFU, PPFIA1 / Fold change vs veh, PPFIA1 / RFU, MAT2A / Fold change vs veh, MAT2A / RFU, CCT5 / Fold change vs veh, CCT5 / RFU, WDR92 / Fold change vs veh, WDR92 / RFU, CUX1 / Fold change vs veh, CUX1 / RFU, TTC7A / Fold change vs veh, TTC7A / RFU, TMEM135 / Fold change vs veh, TMEM135 / RFU, DEPTOR / Fold change vs veh, DEPTOR / RFU, CPM / Fold change vs veh, CPM / RFU, DNAJB6 / Fold change vs veh, DNAJB6 / RFU, CACNA2D3 / Fold change vs veh, CACNA2D3 / RFU, DTX4 / Fold change vs veh, DTX4 / RFU, TFCP2 / Fold change vs veh, TFCP2 / RFU, GMCL1 /// GMCL1P1 / Fold change vs veh, GMCL1 /// GMCL1P1 / RFU, AEBP2 / Fold change vs veh, AEBP2 / RFU, SNHG1 /// SNORD22 /// SNORD25 /// SNORD26 /// SNORD27 /// SNORD28 /// SNORD29 /// SNORD31 / Fold change vs veh, SNHG1 /// SNORD22 /// SNORD25 /// SNORD26 /// SNORD27 /// SNORD28 /// SNORD29 /// SNORD31 / Fold change (Aza/veh), C12orf56 (ProbeSet 11735607_a_at) / Fold change (ACY-1035/veh), C12orf56 (ProbeSet 11735607_a_at) / Fold change (Aza/veh), FGFR1OP (ProbeSet 11751329_s_at) / Fold change (ACY-1035/veh), FGFR1OP (ProbeSet 11751329_s_at) / Fold change (Aza/veh), VPS36 (ProbeSet 11739960_a_at) / Fold change (ACY-1035/veh), VPS36 (ProbeSet 11739960_a_at) / RFU SYPL1 (11715823_x_at) / Fold change /veh SYPL1 (11715823_x_at) / RFU IGFBP7 (11715501_s_at) / Fold change /veh IGFBP7 (11715501_s_at) / RFU REEP3 (11722064_at) / Fold change /veh REEP3 (11722064_at) / RFU IGLL1 (11728026_x_at) / Fold change /veh IGLL1 (11728026_x_at): dose or concentration left out as unconfirmed
Conditions: ProbeSet 11757268_x_at; LIST B

SMILES: Nc1ncn([C@@H]2O[C@H](CO)[C@@H](O)[C@H]2O)c(=O)n1 [azacitidine]
- RFU, HNRNPA1: 4469.53 RFU
